Measurements published in patent US20130281399A1, “TREATMENT OF DISEASES BY EPIGENETIC REGULATION” (RVX Therapeutics Inc., priority 2012, published 2013).

These molecules were tested against T1, Brd4 bromodomain 1 (Homo sapiens, UniProt O60885) (assay: Inhibition of binding of tetra-acetylated histone H4 to Brd4 bromodomain 1 (TR-FRET)). Conditions: His-tagged Brd4 bromodomain 1 200 nM, tetra-acetylated histone H4 peptide 25-50 nM, 2 hours room temperature.
T1 construct: made in house; host or cells: E. coli BL21(DE3)
Description: Proteins were cloned and overexpressed with a N-terminal 6×His tag, then purified by nickel affinity followed by size exclusion chromatography. Briefly, E. coli BL21(DE3) cells were transformed with a recombinant expression vector encoding N-terminally Nickel affinity tagged bromodomains from Brd2, Brd3, Brd4. Cell cultures were incubated at 37° C. with shaking to the appropriate density and induced overnight with IPTG. The supernatant of lysed cells was loaded onto Ni-IDA column for purification. Eluted protein was pooled, concentrated and further purified by size exclusion chromatography. Fractions representing monomeric protein were pooled, concentrated, aliquoted, and frozen at −80° C. for use in subsequent experiments.
For inhibition assays, serially diluted test compound was added to these reactions in a 0.2% final concentration of DMSO. Final buffer concentrations were 30 mM HEPES pH 7.4, 30 mM NaCl, 0.3 mM CHAPS, 20 mM phosphate pH 7.0, 320 mM KF, 0.08% BSA). […] The binding inhibitory activity was shown by a decrease in 665 nm fluorescence relative to 620 nm. IC50 values were determined from a dose response curve.
For `COc1cc(OCCOC(C)C)c2c(=O)[nH]c(-c3cc(C)nc(C)c3)nc2c1` [Example 6, 2-(2,6-dimethylpyridin-4-yl)-5-(2-isopropoxyethoxy)-7-methoxyquinazolin-4(3H)-one], the “FRET activity (<50 uM)” value was “Active”.
With `COc1cc(OC)c2c(=O)[nH]c(-c3ccc(N4C[C@@H](C)N(C(C)=O)[C@@H](C)C4)cc3)nc2c1` [Example 36, 2-(4-((3R,5S)-4-Acetyl-3,5-dimethylpiperazin-1-yl)phenyl)-5,7-dimethoxyquinazolin-4(3H)-one] the “FRET activity (<50 uM)” value was “Active”.
With `COc1cc(OC)c2c(=O)[nH]c(-c3ccc(N4CCN(C(C)=O)C(C)C4)cc3)nc2c1` (stereo not drawn) [Example 38, 2-(4-(4-Acetyl-3-methylpiperazin-1-yl)phenyl)-5,7-dimethoxyquinazolin-4(3H)-one] the “FRET activity (<50 uM)” value was “Active”.
With `COc1cc(OC)c2c(=O)[nH]c(-c3ccc(C4CCN(C(C)=O)CC4)cc3)nc2c1` [Example 3, 2-(4-(1-acetylpiperidin-4-yl)phenyl)-5,7-dimethoxyquinazolin-4(3H)-one] the “FRET activity (<50 uM)” value was “Active”.
`COc1cc(OC)c2c(=O)[nH]c(-c3ccc(N4CCN(C(=O)C5CC5)CC4)cc3)nc2c1` [Example 28, 2-(4-(4-(Cyclopropanecarbonyl)piperazin-1-yl)phenyl)-5,7-dimethoxyquinazolin-4(3H)-one] was tested, and the “FRET activity (<50 uM)” value was “Active”.
For `COc1cc(OC)c2c(=O)[nH]c(-c3ccc4[nH]c(CCO)cc4c3)nc2c1` [Example 54, 2-(2-(2-Hydroxyethyl)-1H-indol-5-yl)-5,7-dimethoxyquinazolin-4(3H)-one], the “FRET activity (<50 uM)” value was “Active”.
`COc1cc(OC)c2c(=O)[nH]c(-c3ccc(N4CCC(N(C(C)=O)C(C)C)CC4)cc3)nc2c1` [Example 40, N-(1-(4-(5,7-dimethoxy-4-oxo-3,4-dihydroquinazolin-2-yl)phenyl)piperidin-4-yl)-N-isopropylacetamide] was tested, and the “FRET activity (<50 uM)” value was “Inactive”.
With `COc1cc(OC)c2c(=O)[nH]c(-c3ccc(N4CCNC(C)C4)cc3)nc2c1` (stereo not drawn) [Example 48, 5,7-Dimethoxy-2-(4-(3-methylpiperazin-1-yl)phenyl)quinazolin-4(3H)-one] the “FRET activity (<50 uM)” value was “Active”.
For `COc1cc(OC)c2c(=O)[nH]c(-c3ccc(N4CCN(C(=O)c5cc(Cl)sc5Cl)CC4)cc3)nc2c1` [Example 27, 2-(4-(4-(2,5-Dichlorothiophene-3-carbonyl)piperazin-1-yl)phenyl)-5,7-dimethoxyquinazolin-4(3H)-one], the “FRET activity (<50 uM)” value was “Active”.
With `COc1cc(OC)c2c(=O)[nH]c(-c3ccc4[nH]c(CO)cc4c3)nc2c1` [Example 53, 2-(2-(Hydroxymethyl)-1H-indol-5-yl)-5,7-dimethoxyquinazolin-4(3H)-one] the “FRET activity (<50 uM)” value was “Active”.
With `COc1cc(OC)c2c(=O)[nH]c(-c3ccc(NS(C)(=O)=O)cc3)nc2c1` [Example 59, N-(4-(5,7-Dimethoxy-4-oxo-3,4-dihydroquinazolin-2-yl)phenyl)methanesulfonamide] the “FRET activity (<50 uM)” value was “Active”.
`COc1cc(OC)c2c(=O)[nH]c(-c3ccc4[nH]c(CCN5CCCC5)cc4c3)nc2c1` [Example 57, 5,7-Dimethoxy-2-(2-(2-(pyrrolidin-1-yl)ethyl)-1H-indol-5-yl)quinazolin-4(3H)-one] was tested, and the “FRET activity (<50 uM)” value was “Active”.
`COc1cc(OC)c2c(=O)[nH]c(-c3ccc(Nc4ccncc4)cc3)nc2c1` [Example 60, 5,7-Dimethoxy-2-(4-(pyridin-4-ylamino)phenyl)quinazolin-4(3H)-one] was tested, and the “FRET activity (<50 uM)” value was “Active”.
`COc1cc(OC)c2c(=O)[nH]c(-c3ccc(N4CCN(C(=O)c5cccnc5)CC4)cc3)nc2c1` [Example 22, 5,7-Dimethoxy-2-(4-(4-nicotinoylpiperazin-1-yl)phenyl)quinazolin-4(3H)-one] was tested, and the “FRET activity (<50 uM)” value was “Active”.
In the case of `COc1cc(OC)c2c(=O)[nH]c(-c3ccc(N4CCN(C=O)CC4)cc3)nc2c1` [Example 51, 4-(4-(5,7-Dimethoxy-4-oxo-3,4-dihydroquinazolin-2-yl)phenyl)piperazine-1-carbaldehyde], the “FRET activity (<50 uM)” value is reported as “Active”.
For `COc1cc(OC)c2c(=O)[nH]c(-c3cc(C)c(OCCN4Cc5ccccc5C4)c(C)c3)nc2c1` [Example 65, 2-(4-(2-(Isoindolin-2-yl)ethoxy)-3,5-dimethylphenyl)-5,7-dimethoxyquinazolin-4(3H)-one], the “FRET activity (<50 uM)” value was “Active”.
With `COc1cc(OC)c2c(=O)[nH]c(-c3ccc(OC4CCN(C(=O)N(C)C)CC4)cc3)nc2c1` [Example 63, 4-(4-(5,7-Dimethoxy-4-oxo-3,4-dihydroquinazolin-2-yl)phenoxy)-N,N-dimethylpiperidine-1-carboxamide] the “FRET activity (<50 uM)” value was “Active”.
In the case of `COc1cc(OC)c2c(=O)[nH]c(-c3ccc4[nH]c(CN(C)C)cc4c3)nc2c1` [Example 58, 2-(2-((Dimethylamino)methyl)-1H-indol-5-yl)-5,7-dimethoxyquinazolin-4(3H)-one], the “FRET activity (<50 uM)” value is reported as “Active”.
With `COc1cc(OC)c2c(=O)[nH]c(-c3ccc(N4CCC(NC(=O)N(C)C)CC4)cc3)nc2c1` [Example 15, 3-(1-(4-(5,7-Dimethoxy-4-oxo-3,4-dihydroquinazolin-2-yl)phenyl)piperidin-4-yl)-1,1-dimethylurea] the “FRET activity (<50 uM)” value was “Active”.
For `COc1cc(OC)c2c(=O)[nH]c(-c3ccc(N4CCC(NC(C)=O)C4)cc3)nc2c1` (stereo not drawn) [Example 39, N-(1-(4-(5,7-Dimethoxy-4-oxo-3,4-dihydroquinazolin-2-yl)phenyl)pyrrolidin-3-yl)acetamide], the “FRET activity (<50 uM)” value was “Active”.
`COc1cc(OC)c2c(=O)[nH]c(-c3ccc(N4C[C@@H](C)N(C(C)C)[C@@H](C)C4)cc3)nc2c1` [Example 42, 2-(4-((3R,5S)-4-Isopropyl-3,5-dimethylpiperazin-1-yl)phenyl)-5,7-dimethoxyquinazolin-4(3H)-one] was tested, and the “FRET activity (<50 uM)” value was “Active”.
In the case of `COc1cc(OC)c2c(=O)[nH]c(-c3ccc(OC4CCN(C(C)=O)CC4)cc3)nc2c1` [Example 64, 2-(4-(1-Acetylpiperidin-4-yloxy)phenyl)-5,7-dimethoxyquinazolin-4(3H)-one], the “FRET activity (<50 uM)” value is reported as “Active”.
With `COc1cc(OC)c2c(=O)[nH]c(-c3ccc(N4CCC(NC(C)C)CC4)cc3)nc2c1` [Example 47, 2-(4-(4-(Isopropylamino)piperidin-1-yl)phenyl)-5,7-dimethoxyquinazolin-4(3H)-one] the “FRET activity (<50 uM)” value was “Active”.
With `COc1cc(OC)c2c(=O)[nH]c(-c3ccc(Nc4ccc(C)cc4)cc3)nc2c1` [Example 61, 5,7-Dimethoxy-2-(4-(p-tolylamino)phenyl)quinazolin-4(3H)-one] the “FRET activity (<50 uM)” value was “Inactive”.
For `COc1cc(OC)c2c(=O)[nH]c(-c3cc(C)c(OC[C@@H]4CCC(=O)N4)c(C)c3)nc2c1` [Example 92, (S)-2-(3,5-Dimethyl-4-((5-oxopyrrolidin-2-yl)methoxy)phenyl)-5,7-dimethoxyquinazolin-4(3H)-one], the “FRET activity (<50 uM)” value was “Active”.
With `COc1cc(OC)c2c(=O)[nH]c(-c3ccc(N4CCN(C(=O)C(C)C)CC4)cc3)nc2c1` [Example 17, 2-(4-(4-Isobutyrylpiperazin-1-yl)phenyl)-5,7-dimethoxyquinazolin-4(3H)-one] the “FRET activity (<50 uM)” value was “Active”.
`COc1cc(OC)c2c(=O)[nH]c(-c3ccc(N4CCN(Cc5ccccc5)CC4)cc3)nc2c1` [Example 30, 2-(4-(4-Benzylpiperazin-1-yl)phenyl)-5,7-dimethoxyquinazolin-4(3H)-one] was tested, and the “FRET activity (<50 uM)” value was “Inactive”.
`COc1cc(OC)c2c(=O)[nH]c(-c3ccc(N4CCN(CCO)CC4)cc3)nc2c1` [Example 1, 2-(4-(4-(2-hydroxyethyl)piperazin-1-yl)phenyl)-5,7-dimethoxyquinazolin-4(3H)-one] was tested, and the “FRET activity (<50 uM)” value was “Active”.
With `COc1cc(OC)c2c(=O)[nH]c(-c3ccc(N4CCC(NCc5ccccc5)CC4)nc3)nc2c1` [Example 50, 2-(6-(4-(Benzylamino)piperidin-1-yl)pyridin-3-yl)-5,7-dimethoxyquinazolin-4(3H)-one] the “FRET activity (<50 uM)” value was “Active”.
`COc1cc(OC)c2c(=O)[nH]c(-c3ccc(N4CCC(N(Cc5ccccc5)C(C)=O)CC4)nc3)nc2c1` [Example 49, N-Benzyl-N-(1-(5-(5,7-dimethoxy-4-oxo-3,4-dihydroquinazolin-2-yl)pyridin-2-yl)piperidin-4-yl)acetamide] was tested, and the “FRET activity (<50 uM)” value was “Active”.
`COc1cc(OC)c2c(=O)[nH]c(-c3cc(C)c(OCCCN4CCCC4)c(C)c3)nc2c1` [Example 75, 2-(3,5-Dimethyl-4-(3-(pyrrolidin-1-yl)propoxy)phenyl)-5,7-dimethoxyquinazolin-4(3H)-one] was tested, and the “FRET activity (<50 uM)” value was “Active”.
`COc1cc(OC)c2c(=O)[nH]c(-c3ccc(N4CCN(C(=O)c5ccccn5)CC4)cc3)nc2c1` [Example 21, 5,7-Dimethoxy-2-(4-(4-picolinoylpiperazin-1-yl)phenyl)quinazolin-4(3H)-one] was tested, and the “FRET activity (<50 uM)” value was “Active”.
In the case of `COc1cc(OC)c2c(=O)[nH]c(-c3ccc(N4CCN(C(=O)c5cccs5)CC4)cc3)nc2c1` [Example 24, 5,7-Dimethoxy-2-(4-(4-(thiophene-2-carbonyl)piperazin-1-yl)phenyl)quinazolin-4(3H)-one], the “FRET activity (<50 uM)” value is reported as “Active”.
